Entries after “also recorded” stand apart in the source; their conditions may differ. Read-outs that look alike come from different tables or passages of the source.
How the values were obtained:
[1] = tested on: HL60 cells; format: cell-based, Human
[2] = tested on: HL60 cells; format: cell-based, Human; remark: listed apart in the source
[3] = tested on: C57BL6 mice splenic cells; format: cell-based, mouse
[4] = tested on: HL60 cells; format: cell-based, Human; remark: listed apart in the source
[5] = tested on: BALB/c mice; assay: Copper cytotoxicity assessment in mice; format: in vivo, mouse; settings: copper 0.2 and 0.5 μg/g, 5 times a week for 5 weeks
Description: To this aim, we injected a lower dose of copper (0.2 and 0.5 μg/g) 5 times a week for 5 weeks to a new series of BALB/c mice. We observed the mice every day, monitored their weight and followed their survival to evaluate copper toxicity.

[6] = tested on: chronic sclerodermatous Graft versus Host Disease
[7] = tested on: A20 cells; assay: A20 cell viability; format: cell-based, mouse; settings: 48 h; for Effect on A20 viability vs control: H2O2 experiment
Description: (§1) Cells (1×10^5 per well) were seeded in 96-wells round bottom plates (Falcon, Corning, reference: 353077) and incubated for 48 hours with different experimental conditions in an incubator at 37° C. 5% CO2. Two plates were prepared in parallel to measure respectively the H2O2 production and A20 cell viability.
(§2) H2O2 production, GSH production and cell viability were measured using the same protocols as above-described for […].
(§3) Conditions of Treatments and Related Experimentations: 1 Test H2O2— 1 Test GSH • H2O2 or GSH production and cell survival: As2O3 (1 μM) with CuCl2 at 0.5; 1; 2 and 4 μM.

[8] = tested on: A20 cells; assay: GSH production in A20 cultured cells; format: cell-based, mouse; settings: 48 h, As2O3 at 1 μM, test 1
Description: as §1, §2, §3

[9] = tested on: MRL/lpr mice; settings: Bobé et al., Blood 2006; cited from earlier work
[10] = tested on: A20 cells; assay: H2O2 production in A20 cultured cells; format: cell-based, mouse; settings: 48 h, As2O3 at 1 μM, test 1
Description: as §1, §2, §3

[11] = biological target: T1, caspase-1 (Homo sapiens, UniProt P29466); settings: Maier et al., J. Immunol. 2014; cited from earlier work
T1 sequence (P29466 120-404): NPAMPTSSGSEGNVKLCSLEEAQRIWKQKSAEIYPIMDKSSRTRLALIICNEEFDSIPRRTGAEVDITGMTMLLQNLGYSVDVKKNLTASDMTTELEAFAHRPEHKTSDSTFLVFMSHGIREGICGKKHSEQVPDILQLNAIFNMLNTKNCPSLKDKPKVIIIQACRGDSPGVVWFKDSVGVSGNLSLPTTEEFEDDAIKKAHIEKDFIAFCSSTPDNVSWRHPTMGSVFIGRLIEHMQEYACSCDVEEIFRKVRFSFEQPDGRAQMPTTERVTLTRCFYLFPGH

[12] = tested on: Treg and T17 balance; settings: rheumatoid arthritis patients; Li et al. 2019; cited from earlier work
[13] = Allogeneic + As2O3 2.5 μg/g, 9 mice
[14] = Allogeneic + As2O3 5 μg/g, 5 mice

With [Cl][Cu][Cl] [CuCl2, copper(II) chloride] the “Effect of AsI3 on H2O2 production: AsI3 + CuCl2 vs AsI3” value [1] was “significantly increased”, the “Effect on the H2O2 production induced by As2O3” value [1] was “significantly increases” and the “H2O2 Production: cations vs control” value [1] was “no significant effect; also recorded: Not significant”. The “Cell survival in presence of AsI3” value [2] was “no effect”, the “Cell survival: cations vs control” value ([2]; HL60 cells, 48 h (GSH experiment, Example 4), concentration(s) giving a significant difference, tests 1 and 2) was “no significant effect; also recorded: Not significant” and the “Cell survival: cations vs control” value ([2]; HL60 cells, 48 h (H2O2 experiment), cation concentration(s) giving a statistically significant difference, tests 1 and 2) was “no real effect; also recorded: Not significant”. For the same compound, the “Cell survival: As2O3 + cations vs As2O3” value ([2]; HL60 cells, 48 h, As2O3 1 μM (GSH experiment, Example 4), concentration(s) giving a significant difference, tests 1 and 2) was “no significant effect; also recorded: Not significant”, the “Cell survival: As2O3 + cations vs As2O3” value ([2]; HL60 cells, 48 h, As2O3 1 μM (H2O2 experiment), cation concentration(s) giving a statistically significant difference, tests 1 and 2) was “no real effect; also recorded: Not significant” and the “Effect on HL60 survival in the presence of As2O3” value ([2]; HL60 cells, 48 h, CuCl2 at 1 and 4 μM with As2O3 0.1-10 μM) was “no additional nor protective effect”. The “Cell proliferation: As2O3 + cations vs As2O3” value (“Cell proliferation … vs As2O3” for short) ([3]; MLR, 48 h, As2O3 1 μM, cation concentration(s) giving a significant decrease of proliferation, test 1) was 4 μM (test 1), the “Cell proliferation … vs As2O3” value ([3]; MLR, 48 h, As2O3 1 μM, cation concentration(s) giving a significant decrease of proliferation, tests 1 and 2) was 4 μM or 2 and 4 and the “Proliferation of C57BL6 spleen cells in the presence of AsI3: CuCl2 concentrations with significant decrease” value ([3]; MLR, 48 h, AsI3 1 μM, test 2) was 4 µM. For the same compound, the “Effect on the GSH production induced by As2O3” value [4] was “reduce”, the “GSH Production: cations vs control” value [4] was “no significant effect; also recorded: Not significant” and the “Death after 5 weeks” value [5] was “no death”. For the same compound, the “Mean weights vs control group receiving PBS” value [5] was “similar”, the “Mortality in the copper-treated groups” value ([6]; copper 2.5 or 10 μg/g i.p. 5 times a week, injections stopped at the end of day 4) was “significant loss of mice” and the “Mortality in the copper-treated groups” value ([6]; copper injected only twice a week from day 8 until the end of the 5 weeks) was “no more copper-treated mice died”. The “Cell survival: As2O3 + cations vs As2O3” value ([7]; As2O3 1 μM (GSH experiment), CuCl2 concentration(s) giving a significant increase of viability, 1 test) was 4 µM.
For O=S(=O)([O-])[O-].[Fe+2] [FeSO4], the “Cell survival: As2O3 + cations vs As2O3” value [2] was “no significant effect; also recorded: Not significant”, the “Cell survival: cations vs control” value [2] was “no significant effect; also recorded: Not significant” and the “Cell proliferation … vs As2O3” value [3] was “does not have a significant effect”.
With [Cl][Mn][Cl] [MnCl2] the “H2O2 Production: As2O3 + cations vs As2O3” value (“H2O2 Production … vs As2O3” below) [1] was 1 µM, the “H2O2 Production: cations vs control” value [1] was 1 µM and the “Cell survival: As2O3 + cations vs As2O3” value [2] was “Not significant”. For the same compound, the “Cell survival: cations vs control” value [2] was “Not significant”.
In the case of O=S(=O)([O-])[O-].[Mn+2] [MnSO4], the “H2O2 Production … vs As2O3” value [1] is reported as 0.25 µM and the “Cell survival: As2O3 + cations vs As2O3” value [2] is reported as “no real effect; also recorded: Not significant”.
In the case of [Cl-].[Cl-].[Zn+2] [ZnCl2], the “H2O2 Production … vs As2O3” value [1] is reported as “Not significant”, the “Cell survival: As2O3 + cations vs As2O3” value [2] is reported as “no significant and reproducible effect; also recorded: Not significant” and the “Cell survival: cations vs control” value [2] is reported as “Not significant”.
In the case of O=S(=O)([O-])[O-].[Zn+2] [ZnSO4], the “Cell survival: As2O3 + cations vs As2O3” value [2] is reported as “no significant and reproducible effect; also recorded: Not significant”.
In the case of Arsenic Trioxide [As2O3], the “Effect on GSH production vs control” value [8] is given as “significantly increased”, the “Effect on the production of H2O2” value [1] is given as “not significant, but it increases at 5 μM” and the “Survival of MRL/lpr mice” value [9] is given as “significantly prolonged”. The “Cell proliferation in the presence of mitogen” value [3] was “completely inhibits”, the “Effect on GSH production vs control” value [4] was “significantly increases” and the “Effect on H2O2 production vs control” value [10] was “significantly increased”. For the same compound, the “Inhibition of caspase-1 and the innate immune response” value [11] was “potent inhibitors”, the “Treg and T17 balance” value [12] was “improves” and the “Number of mice at the end (live mice)” value ([6]; Allogeneic + As2O3 2.5 μg/g i.p. 5 times a week for 5 weeks, 10 mice at the beginning) was 9. For the same compound, the “Ear thickness (vasculitis)” value ([6]; Allogeneic + As2O3 2.5 μg/g vs allogeneic) was “reduced”, the “Number of mice with alopecia” value [6, 13] was 3 and the “Percentage of mice with alopecia” value [6, 13] was 33%. The “Number of mice at the end (live mice)” value ([6]; Allogeneic + As2O3 5 μg/g i.p. 5 times a week for 5 weeks, 7 mice at the beginning) was 5, the “Ear thickness (vasculitis)” value ([6]; Allogeneic + As2O3 5 μg/g vs allogeneic) was “decreased even more until reaching the same values as the ones of the syngeneic group” and the “Number of mice with alopecia” value [6, 14] was 1. The “Percentage of mice with alopecia” value [6, 14] was 20%, the “Effect on A20 cells viability vs control” value ([7]; As2O3 at 1 μM, GSH experiment, test 1) was “significantly reduced” and the “Effect on A20 viability vs control” value ([7]; As2O3 at 1 μM, test 1) was “reduced”. For the same compound, the “Effect on A20 viability vs control” value ([7]; As2O3 at 1 μM, test 2) was “significantly reduced”.
